Structures are written as SMILES. Starred links: 1 amine or outer side, 2 acyl side, 3 side chain; linkers in the order of their positions; H or OH if unused. Non-standard residues stand in square brackets, D forms with d. Residues, ends and D or L forms follow the SMILES beside them. Groups on a side chain read outwards from the residue. *: point of attachment. C18 diacid = O=C(O)CCCCCCCCCCCCCCCCC(=O)*; γGlu = O=C(O)[C@H](CCC(=O)[*:2])N[*:1]; AEEA = NCCOCCOCC(=O)O; Aib = CC(C)(N)C(=O)O

The experiment concerns the target T1, human CRF2α receptor (Homo sapiens, UniProt Q13324).
T1 construct: expressed in transfected cells; host or cells: TeloHEAC
T1 sequence (Q13324 1-411): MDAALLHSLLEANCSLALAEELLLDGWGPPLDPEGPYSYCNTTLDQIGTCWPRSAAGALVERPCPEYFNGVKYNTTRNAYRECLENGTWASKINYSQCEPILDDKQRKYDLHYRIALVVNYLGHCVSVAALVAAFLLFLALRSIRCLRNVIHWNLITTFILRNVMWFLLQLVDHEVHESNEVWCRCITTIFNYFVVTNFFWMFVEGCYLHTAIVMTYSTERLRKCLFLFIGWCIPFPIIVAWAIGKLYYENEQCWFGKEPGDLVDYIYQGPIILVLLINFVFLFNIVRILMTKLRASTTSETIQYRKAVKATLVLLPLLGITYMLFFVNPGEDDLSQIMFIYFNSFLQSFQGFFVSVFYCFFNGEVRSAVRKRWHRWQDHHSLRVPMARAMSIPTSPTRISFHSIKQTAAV
Put plainly: cAMP agonism at human CRF2 α receptor in TeloHEAC cells (Example 7). It counts as cell-based. The settings on record: cAMP HTRF, TeloHEAC cells stably expressing human CRF2 α, 0% HSA; read-out: EC50 [nM], 0% HSA. As to the method: Agonism of compounds for human corticotropin-releasing factor 2α (CRF2 α receptor) was determined by functional assays measuring CAMP response of a TeloHEAC cell line stably expressing human CRF2 α receptor.
Cells were grown in a T175 culture flask placed at 37° C. to near confluence in medium (DMEM/10% FBS) and collected in 2 ml vials in cell culture medium containing 10% DMSO in a concentration of 10-50 million cells/ml. Each vial contained 1.8 ml cells. The vials were slowly frozen to −80° C. in isopropanol and then transferred in liquid nitrogen for storage. Prior to use, frozen cells were thawed quickly at 37° C. and washed (5 min at 900 rpm) with 20 ml cell buffer (1×HBSS; 20 mM HEPES; 0% or 0.1% HSA). Cells were resuspended in assay buffer (cell buffer plus 2 mM IBMX) and adjusted to a cell density of 1 million cells/ml. For measurement, 5 μl cells (final […]) and 5 μL of test compound were added to a 384-well plate, followed by incubation for 30 minutes at room temperature.
The CAMP content of cells was determined using a kit from Cisbio Corp. (cat. no. 62AM4PEC) based on HTRF (Homogenous Time Resolved Fluorescence). After addition of HTRF reagents diluted in lysis buffer (kit components), the plates were incubated for 1 h, followed by measurement of the fluorescence ratio at 665/620 nm. The percent activity value (E %) was calculated by setting 1000 nM of urocortin 2 (UCN2) as 100%. The in vitro potency of the compounds was quantified by determining the concentrations that caused 50% activation of maximal response (EC50).

The term EC50 denotes the concentration needed to bring the measured effect to its halfway point. Regarding `CC[C@H](C)[C@H](NC(=O)[C@H](CCC(N)=O)NC(=O)[C@H](CCCCN)NC(=O)[C@H](CC(N)=O)NC(=O)[C@@H](NC(=O)[C@H](CCCCN)NC(=O)[C@H](C)NC(=O)[C@H](CCCCN)NC(=O)[C@H](CCC(N)=O)NC(=O)[C@H](CCCNC(=N)N)NC(=O)[C@H](CCC(N)=O)NC(=O)[C@H](CCCCN)NC(=O)[C@H](CCCCN)NC(=O)[C@H](CCC(N)=O)NC(=O)[C@H](CCCCN)NC(=O)[C@H](CCC(=O)O)NC(=O)[C@H](CCC(N)=O)NC(=O)[C@H](CCCCN)NC(=O)[C@H](CC(C)C)NC(=O)[C@H](CC(C)C)NC(=O)[C@H](CCCCN)NC(=O)[C@H](CCC(N)=O)NC(=O)[C@H](CCCCNC(=O)COCCOCCNC(=O)COCCOCCNC(=O)CC[C@H](NC(=O)CCCCCCCCCCCCCCCCC(=O)O)C(=O)O)NC(=O)[C@@H](NC(=O)[C@H](CCCCN)NC(=O)[C@@H](NC(=O)[C@@H]1CCCN1C(=O)[C@@H](NC(=O)[C@H](CC(=O)O)NC(=O)[C@H](CC(C)C)NC(=O)[C@H](CO)NC(=O)[C@H](CC(C)C)NC(=O)[C@@H](NC(=O)[C@@H](N)Cc1ccccc1)[C@@H](C)O)C(C)C)[C@@H](C)O)[C@@H](C)CC)[C@@H](C)O)C(=O)N[C@@H](CC(C)C)C(=O)N[C@@H](CCC(=O)O)C(=O)N[C@@H](CCC(N)=O)C(=O)N[C@H](C(N)=O)C(C)C` [compound 34] (H-FTLSLDVPTKIK([AEEA-AEEA-γGlu-C18 diacid])QKLLKQEKQKKQRQKAKTNKQILEQV-NH2; N-terminus assumed), the EC50 came to 6.88 nM.
In the case of `CC[C@H](C)[C@H](N)C(=O)N[C@H](C(=O)N[C@@H](CC(C)C)C(=O)N[C@@H](CO)C(=O)N[C@@H](CC(C)C)C(=O)N[C@@H](CC(=O)O)C(=O)N[C@H](C(=O)N1CCC[C@H]1C(=O)N[C@H](C(=O)N[C@@H](CCCCN)C(=O)N[C@@H](CC(C)C)C(=O)N[C@@H](CCCCNC(=O)COCCOCCNC(=O)COCCOCCNC(=O)CC[C@H](NC(=O)CCCCCCCCCCCCCCCCC(=O)O)C(=O)O)C(=O)N[C@@H](CCC(N)=O)C(=O)N[C@@H](CCCCN)C(=O)N[C@@H](CC(C)C)C(=O)N[C@@H](CC(C)C)C(=O)N[C@@H](CCCCN)C(=O)N[C@@H](CCC(N)=O)C(=O)N[C@@H](CCC(=O)O)C(=O)N[C@@H](CCCNC(=N)N)C(=O)N[C@@H](CCC(N)=O)C(=O)N[C@@H](CCCNC(=N)N)C(=O)N[C@@H](CCCCN)C(=O)N[C@@H](CCC(=O)O)C(=O)N[C@@H](CCCNC(=N)N)C(=O)N[C@@H](CCC(N)=O)C(=O)N[C@@H](CCC(N)=O)C(=O)N[C@@H](C)C(=O)N[C@@H](CCC(=O)O)C(=O)N[C@H](C(=O)N[C@@H](CC(N)=O)C(=O)N[C@@H](CCCCN)C(=O)N[C@@H](CCCNC(=N)N)C(=O)N[C@H](C(=O)N[C@@H](CC(C)C)C(=O)N[C@@H](CCC(=O)O)C(=O)N[C@@H](CCCNC(=N)N)C(=O)N[C@H](C(N)=O)C(C)C)[C@@H](C)CC)[C@@H](C)O)[C@@H](C)O)C(C)C)C(C)C` [compound 37] (H-IVLSLDVPTKLK([AEEA-AEEA-γGlu-C18 diacid])QKLLKQERQRKERQQAETNKRILERV-NH2; N-terminus assumed) it was 1.6 nM; in that of `CC[C@H](C)[C@H](N)C(=O)N[C@H](C(=O)N[C@@H](CC(C)C)C(=O)N[C@@H](CO)C(=O)N[C@@H](CC(C)C)C(=O)N[C@@H](CC(=O)O)C(=O)N[C@H](C(=O)N1CCC[C@H]1C(=O)N[C@H](C(=O)N[C@@H](CCCCN)C(=O)N[C@@H](CC(C)C)C(=O)N[C@@H](CCCCNC(=O)COCCOCCNC(=O)COCCOCCNC(=O)CC[C@H](NC(=O)CCCCCCCCCCCCCCCCC(=O)O)C(=O)O)C(=O)N[C@@H](CCC(N)=O)C(=O)N[C@@H](CCCCN)C(=O)N[C@@H](CC(C)C)C(=O)N[C@@H](CC(C)C)C(=O)N[C@@H](CCCCN)C(=O)N[C@@H](CCC(N)=O)C(=O)N[C@@H](CCC(=O)O)C(=O)N[C@@H](CCCNC(=N)N)C(=O)N[C@@H](CCC(N)=O)C(=O)N[C@@H](CCCNC(=N)N)C(=O)NC(C)(C)C(=O)N[C@@H](CCC(=O)O)C(=O)N[C@@H](CCCNC(=N)N)C(=O)N[C@@H](CCC(N)=O)C(=O)N[C@@H](CCC(N)=O)C(=O)N[C@@H](C)C(=O)N[C@@H](CCC(=O)O)C(=O)N[C@H](C(=O)N[C@@H](CC(N)=O)C(=O)N[C@@H](CCCCN)C(=O)N[C@@H](CCCNC(=N)N)C(=O)N[C@H](C(=O)N[C@@H](CC(C)C)C(=O)N[C@@H](CCC(=O)O)C(=O)N[C@@H](CCCNC(=N)N)C(=O)N[C@H](C(N)=O)C(C)C)[C@@H](C)CC)[C@@H](C)O)[C@@H](C)O)C(C)C)C(C)C` [compound 38] (H-IVLSLDVPTKLK([AEEA-AEEA-γGlu-C18 diacid])QKLLKQERQR[Aib]ERQQAETNKRILERV-NH2), 20.9 nM; in that of `CC[C@H](C)[C@H](N)C(=O)N[C@H](C(=O)N[C@@H](CC(C)C)C(=O)N[C@@H](CO)C(=O)N[C@@H](CC(C)C)C(=O)N[C@@H](CC(=O)O)C(=O)N[C@H](C(=O)N1CCC[C@H]1C(=O)N[C@H](C(=O)N[C@@H](CCCCN)C(=O)N[C@@H](CC(C)C)C(=O)N[C@@H](CCCCNC(=O)COCCOCCNC(=O)COCCOCCNC(=O)CC[C@H](NC(=O)CCCCCCCCCCCCCCCCC(=O)O)C(=O)O)C(=O)N[C@@H](CCC(N)=O)C(=O)N[C@H](C(=O)N[C@@H](CC(C)C)C(=O)N[C@@H](CC(C)C)C(=O)N[C@@H](CCC(=O)O)C(=O)N[C@@H](CCC(N)=O)C(=O)N[C@@H](CCC(=O)O)C(=O)N[C@@H](CCCNC(=N)N)C(=O)N[C@@H](CCC(N)=O)C(=O)N[C@@H](CCCNC(=N)N)C(=O)N[C@@H](CCCCN)C(=O)N[C@@H](CCC(=O)O)C(=O)N[C@@H](CCCNC(=N)N)C(=O)N[C@@H](CCC(N)=O)C(=O)N[C@@H](CCC(N)=O)C(=O)N[C@@H](C)C(=O)N[C@@H](CCC(=O)O)C(=O)N[C@H](C(=O)N[C@@H](CC(N)=O)C(=O)N[C@H](C(=O)N[C@@H](CCC(N)=O)C(=O)N[C@H](C(=O)N[C@@H](CC(C)C)C(=O)N[C@@H](C)C(=O)N[C@@H](CCC(N)=O)C(=O)N[C@H](C(N)=O)C(C)C)[C@@H](C)CC)C(C)C)[C@@H](C)O)[C@@H](C)CC)[C@@H](C)CC)C(C)C)C(C)C` [compound 40] (H-IVLSLDVPIKLK([AEEA-AEEA-γGlu-C18 diacid])QILLEQERQRKERQQAETNVQILAQV-NH2; N-terminus assumed), 15.4 nM.
In the case of `CC[C@H](C)[C@H](N)C(=O)N[C@H](C(=O)N[C@@H](CC(C)C)C(=O)N[C@@H](CO)C(=O)N[C@@H](CC(C)C)C(=O)N[C@@H](CC(=O)O)C(=O)N[C@H](C(=O)N1CCC[C@H]1C(=O)N[C@H](C(=O)N[C@@H](CCCCN)C(=O)N[C@@H](CC(C)C)C(=O)N[C@@H](CCCCNC(=O)COCCOCCNC(=O)COCCOCCNC(=O)CC[C@H](NC(=O)CCCCCCCCCCCCCCCCC(=O)O)C(=O)O)C(=O)N[C@@H](CCC(N)=O)C(=O)N[C@H](C(=O)N[C@@H](CC(C)C)C(=O)N[C@@H](CC(C)C)C(=O)N[C@@H](CCC(=O)O)C(=O)N[C@@H](CCC(N)=O)C(=O)N[C@@H](CCC(=O)O)C(=O)N[C@@H](CCCNC(=N)N)C(=O)N[C@@H](CCC(N)=O)C(=O)N[C@@H](CCCNC(=N)N)C(=O)N[C@@H](CCCCN)C(=O)N[C@@H](CCC(=O)O)C(=O)N[C@@H](CCCNC(=N)N)C(=O)N[C@@H](CCC(N)=O)C(=O)N[C@@H](CCC(N)=O)C(=O)N[C@@H](C)C(=O)N[C@@H](CCC(=O)O)C(=O)N[C@@H](CCCCN)C(=O)N[C@@H](CC(N)=O)C(=O)N[C@H](C(=O)N[C@@H](CCCNC(=N)N)C(=O)N[C@H](C(=O)N[C@@H](CC(C)C)C(=O)N[C@@H](CCC(=O)O)C(=O)N[C@@H](CCCNC(=N)N)C(=O)N[C@H](C(N)=O)C(C)C)[C@@H](C)CC)C(C)C)[C@@H](C)CC)[C@@H](C)CC)C(C)C)C(C)C` [compound 41] (H-IVLSLDVPIKLK([AEEA-AEEA-γGlu-C18 diacid])QILLEQERQRKERQQAEKNVRILERV-NH2; N-terminus assumed) it was 15.6 nM.

For the origin of these results see US12679878B2, “CRF2 receptor agonists and their use in therapy” (SANOFI, priority 2020, dated 2026).
